Consider 83 compounds from PubChem BioAssay AID1259375 (The Scripps Research Institute Molecular Screening Center, 2018).

Usually IC50 stands for the point on the concentration scale where inhibition reaches its midpoint.

The experiment deals with Microphthalmia-associated transcription factor (Homo sapiens) (UniProt O75030). Description: MITF inhibitors by FRET titration, dose response, biochemical, high throughput (AID 1259375).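 Further: FRET between CFP-tagged and YFP-tagged MITF protein partners.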 Particulars: FRET biochemical assay, MITF inhibition.

SMILES strings stand for the structures. The source made the active and inactive calls. How the calls were made is not given here.

Chain of Microphthalmia-associated transcription factor (Homo sapiens) (O75030 whole entry, looked up): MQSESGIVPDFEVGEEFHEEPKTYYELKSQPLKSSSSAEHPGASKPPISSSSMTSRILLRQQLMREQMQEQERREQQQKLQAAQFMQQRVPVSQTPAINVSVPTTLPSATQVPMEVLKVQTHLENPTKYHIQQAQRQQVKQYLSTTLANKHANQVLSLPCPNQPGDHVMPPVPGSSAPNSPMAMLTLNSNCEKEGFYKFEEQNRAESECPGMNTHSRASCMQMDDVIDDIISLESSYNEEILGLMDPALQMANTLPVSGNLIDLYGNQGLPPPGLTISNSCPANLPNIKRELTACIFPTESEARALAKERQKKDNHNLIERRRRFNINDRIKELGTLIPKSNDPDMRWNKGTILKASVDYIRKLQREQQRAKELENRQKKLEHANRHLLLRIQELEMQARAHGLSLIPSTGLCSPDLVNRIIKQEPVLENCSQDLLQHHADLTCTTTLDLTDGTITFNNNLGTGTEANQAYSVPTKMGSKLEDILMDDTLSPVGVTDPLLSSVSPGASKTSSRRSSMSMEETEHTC

As to `O=C(OC1CCCC1=O)c1ccc(Cl)c(S(=O)(=O)N2CCOCC2)c1` (stereo not drawn), the IC50 was > 6.69 µM (inactive).
With `CN(C)c1ccc(O)c2c1C[C@H]1C[C@H]3[C@H](N(C)C)C(=O)C(C(N)=O)=C(O)[C@@]3(O)C(=O)C1=C2O`, the IC50 was 3.08 µM.
Take `N#Cc1c(-c2ccc3c(c2)OCO3)nc(N2CCCCC2)[nH]c1=O`: the IC50 is > 6.48 µM (inactive).
Turning to `COc1cccc(CN2CCC(CNc3ccc(-c4ccncc4)cc3)C2)c1` (stereo not drawn), the IC50 is > 6.48 µM (inactive).
For the compound `O=C(NCc1ccccc1)N1CCN2C(=O)[C@H]3CCCN3C(=O)[C@H]2C1`, the IC50 was > 6.48 µM (inactive).
As for `Nc1ccc(C(=O)O)c(O)c1`, the IC50 was 1.96 µM.
To `Cc1ccc(-c2ncn(-c3ccc(Nc4cc(-n5cnc(Nc6ccccc6)n5)c(F)cn4)cc3)n2)cn1` belongs > 6.48 µM (inactive); to `NC(=O)CSc1ccc(C(N)=O)cc1[N+](=O)[O-]`, > 7.11 µM (inactive).
For `O=C(Nc1ccc(-c2cn[nH]c2)c(C(F)(F)F)c1)C1COc2ccccc2O1` (stereo not drawn), the IC50 is > 6.48 µM (inactive).
In the case of `C[C@H]1NC(=O)[C@H]2CN(C(=O)NC3CCCCC3)CCN2C1=O`, the IC50 was > 6.48 µM (inactive).
To `CCN1CCN(CCOCCOc2ccc(F)cc2)CC1` belongs > 6.48 µM (inactive); to `CCC[C@@H]1NC(=O)[C@H]2CN(C(=O)NC3CCCCC3)CCN2C1=O`, > 6.48 µM (inactive); to `O=C(Nc1ccc(C(=O)Nc2ccc(C(=O)Nc3ccc(S(=O)(=O)O)c4cc(S(=O)(=O)O)cc(S(=O)(=O)O)c34)cc2)cc1)Nc1ccc(C(=O)Nc2ccc(C(=O)Nc3ccc(S(=O)(=O)O)c4cc(S(=O)(=O)O)cc(S(=O)(=O)O)c34)cc2)cc1`, > 6.48 µM (inactive).
For `Cc1c(NC(=S)NC(=O)/C=C/c2ccco2)cccc1C(=O)O` the value was 3.78 µM; for `O=C(NC1CCCCC1)N1CCN2C(=O)[C@@H]3CCCN3C(=O)[C@H]2C1`, > 6.48 µM (inactive).
Turning to `O=C1N[C@@H](COCc2ccccc2)C(=O)N2CCN(C(=O)NCc3ccccc3)C[C@H]12`, the IC50 was > 6.48 µM (inactive).
With `CCc1ccc(NC(=O)CS(=O)CC(=O)NCCCc2ccccc2)cc1` (stereo not drawn), the IC50 is > 6.48 µM (inactive).
Regarding `O=C(O)c1cc(N/N=C/c2ccc(N3CCOCC3)s2)ccc1Cl`, the IC50 is 3.77 µM.
For the compound `O=C(O)c1cc(NN=C2CCCC2)ccc1Cl`, the IC50 was > 7.18 µM (inactive).
To `O=C(O)c1cc(S(=O)(=O)Nc2ccc3cn[nH]c3c2)ccc1O` belongs > 7 µM (inactive).
Turning to `Cn1nnc(-c2ccc(Nc3nccc(-c4ccc5nc(C6CC6)[nH]c(=O)c5c4)n3)cc2)n1`, the IC50 is > 6.48 µM (inactive).
For `CN(C)CCOCCOc1ccccc1-c1ccccc1` the value was > 6.48 µM (inactive); for `COc1cc(CN2CCN(C3CCCC3)CC2)cc(OC)c1OC`, > 6.48 µM (inactive).
To `O=C1NC(=O)/C(=C\c2ccc(O)cc2O)S1` belongs > 6.48 µM (inactive); to `C[C@H](O)[C@H]1NC(=O)[C@H]2CN(C(=O)NCc3ccccc3)CCN2C1=O`, > 6.48 µM (inactive).
As for `Cn1cc(-c2nc(Nc3ccc(-n4cnc(N5CCOCC5)n4)cc3)ncc2Br)cn1`, the IC50 was > 6.48 µM (inactive).
`Cn1c(SCc2cc(=O)n3c(n2)sc2ccccc23)nnc1C(F)(F)F`: the IC50 was > 7.18 µM (inactive).
Regarding `Cc1ccc([N+](=O)[O-])cc1S(=O)(=O)Nc1ccc(Nc2ncccc2[N+](=O)[O-])cc1`, the IC50 was > 6.64 µM (inactive).
For `N#C/C(=C\c1ccc(-c2ccccc2C(=O)O)o1)C(=O)NCc1ccco1` the value was > 6.48 µM (inactive); for `Cc1cccc(N2CCN(C(=O)/C=C\C(=O)O)CC2)c1C`, > 6.48 µM (inactive); for `O=C(NCCN1CCOCC1)c1cccc(CN(C(=O)c2nc3ccc(-c4cn[nH]c4)cc3s2)C2CC2)c1`, > 6.48 µM (inactive).
Take `O=C(O)c1ccc(NC2OC(CO)C(O)C2O)cc1` (stereo not drawn): the IC50 is > 5.62 µM (inactive).
In the case of `CCc1ccc(CN2CCN(Cc3cc(OC)c(O)c(OC)c3)CC2)cc1`, the IC50 is > 5.79 µM (inactive).
For `COc1ccc(C[C@@H]2NC(=O)[C@H]3CN(C(=O)NC4CCCCC4)CCN3C2=O)cc1` the value was > 6.48 µM (inactive); for `O=C(O)c1cc(-n2cccc2)ccc1Cl`, > 6.48 µM (inactive).
As for `O=C(c1cccc(F)c1)N1CCN(Cc2ccncc2)CC1`, the IC50 was > 5.66 µM (inactive).
For `Cc1cncc2c(S(=O)(=O)N3CC[C@@H](NC(=O)C(O)c4ccc(F)cc4F)C3)cccc12` (stereo partly drawn) the value was > 6.48 µM (inactive); for `CC(C)NC(=O)c1cccc(NC(=O)Nc2ccc(-c3ncnc4[nH]cc(Cl)c34)cc2)c1`, > 6.48 µM (inactive); for `N#C/C(=C/c1ccco1)c1cccc(F)c1`, > 6.48 µM (inactive).
Consider `O=C(c1ccncc1)N1C2C=CC(C2)C1(C(F)(F)F)C(F)(F)F` (stereo not drawn), for which the IC50 was > 6.48 µM (inactive).
Take `C[C@@H](O)[C@@H]1NC(=O)[C@H]2CN(C(=O)NCc3ccccc3)CCN2C1=O`: the IC50 was > 6.48 µM (inactive).
Turning to `CN(C)CCN(C(=O)OCc1ccccc1)c1cc(-c2cn[nH]c2)ccc1NC(=O)OCc1ccccc1`, the IC50 is > 6.48 µM (inactive).
Turning to `O=C(O)c1cc2ncc(-c3n[nH]c(-c4cnc5cc(C(=O)O)nn5c4)c3[N+](=O)[O-])cn2n1`, the IC50 was > 6.48 µM (inactive).
Regarding `Brc1c(OCCN2CCNCC2)ccc2ccccc12`, the IC50 was > 6.48 µM (inactive).
`O=C(O)CCC(NCc1ccco1)C(=O)O` (stereo not drawn): the IC50 was > 6.85 µM (inactive).
For `O=C1N[C@H](CO)C(=O)N2CCN(C(=O)NCc3ccccc3)C[C@H]12`, the IC50 is > 6.48 µM (inactive).
For the compound `O=C(/C=C/c1ccco1)NCc1cccc(CNC(=O)/C=C/c2ccco2)c1`, the IC50 is > 6.48 µM (inactive).
On to `C=CCc1cc(C)ccc1OCCCCn1ccnc1`, for which the IC50 is > 6.48 µM (inactive).
In the case of `O=S(=O)(c1ccccc1C(F)(F)F)N1CCC(c2nc3ccccc3[nH]2)CC1`, the IC50 was > 6.48 µM (inactive).
For the compound `COC(=O)CN1C(=O)S/C(=C/c2ccc([N+](=O)[O-])o2)C1=O`, the IC50 is > 6.48 µM (inactive).
Regarding `Cc1cc(OCCOCCN2CCNCC2)ccc1Cl`, the IC50 is > 6.48 µM (inactive).
For `CN1CCN(C(=O)c2ccc(-c3nc(Nc4ccccc4)c4ncn(C5CCCCC5)c4n3)cc2)CC1`, the IC50 is > 7.63 µM (inactive).
In the case of `NC(=O)c1ccc(N=Cc2cc3c(cc2[N+](=O)[O-])OCO3)cc1`, the IC50 is 4.37 µM.
On to `CC(Oc1ccc(O)cc1)(P(=O)(O)O)P(=O)(O)O`, for which the IC50 was > 6.48 µM (inactive).
Take `OCCNc1cc(-c2cccs2)ncn1`: the IC50 is > 6.01 µM (inactive).
For `CN1CCN(CCNC(=O)c2cccc(CN(C(=O)c3nc4ccc(-c5cn[nH]c5)cc4s3)C3CC3)c2)CC1` the value was > 6.48 µM (inactive).
Consider `CCCCOc1ccc(C(=O)N/C(=C/c2ccco2)C(=O)O)cc1`, for which the IC50 entry is “inactive”.
For the compound `CN(C)/C=C/C=C/C(=O)c1cccc(C(=O)/C=C/C=C/N(C)C)c1O`, the IC50 was > 6.48 µM (inactive).
Consider `O=C(c1ccc(=O)oc1)N1CCc2ccccc21`, for which the IC50 was > 7.53 µM (inactive).
Consider `O=C(O)CCN(CCC(=O)O)c1ccc(O)cc1`, for which the IC50 is 2.99 µM.
Turning to `O=C(NCCc1ccc(O)cc1)c1cccc(-c2cccs2)c1`, the IC50 was > 6.26 µM (inactive).
Consider `C[C@H]1C(=O)N2CCN(C(=O)NC3CCCCC3)C[C@@H]2C(=O)N1C`, for which the IC50 was > 6.48 µM (inactive).
Consider `O=C1N[C@@H](CC2CCCCC2)C(=O)N2CCN(C(=O)NCc3ccccc3)C[C@H]12`, for which the IC50 was > 6.48 µM (inactive).
Turning to `O=C1NC(=S)N/C1=C\c1ccc([N+](=O)[O-])o1`, the IC50 is > 7.74 µM (inactive).
On to `COc1ccc2c(c1)CC(C(=O)Nc1ccc(-c3cn[nH]c3)cc1C(=O)N(C)OC)CO2` (stereo not drawn), for which the IC50 was > 6.48 µM (inactive).
Regarding `C/C(=N\NC(=O)CC1=NNC(=O)C1)c1ccco1`, the IC50 is > 6.48 µM (inactive).
Take `Cc1ccc(-c2nnc3s/c(=C\c4ccco4)c(=O)n23)cc1`: the IC50 is > 6.48 µM (inactive).
Regarding `O=C(O)c1cc([N+](=O)[O-])cc2c1-c1c(cc([N+](=O)[O-])cc1[N+](=O)[O-])/C2=C/c1ccco1`, the IC50 is 1.77 µM.
For `CC(Oc1ccc2c(C(F)(F)F)cc(=O)oc2c1)C(=O)NN` (stereo not drawn), the IC50 was > 6.56 µM (inactive).
`NC(=O)c1cc(NC(=O)COC(=O)COc2cccc(C(F)(F)F)c2)cc(C(N)=O)c1`: the IC50 is > 6.49 µM (inactive).
`O=C(Cn1cc(C(=O)c2ccco2)c2ccccc21)NCc1cccnc1`: the IC50 is > 6.48 µM (inactive).
On to `O=C(NCc1cccnc1)c1cccc(-c2cccs2)c1`, for which the IC50 is > 6.64 µM (inactive).
`CN(C)c1cc(NC(=O)CNC(C)(C)C)c(O)c2c1C[C@H]1C[C@H]3[C@@H](N(C)C)C(=O)C(C(N)=O)=C(O)[C@@]3(O)C(=O)C1=C2O`: the IC50 was > 6.48 µM (inactive).
`O=C(NCCc1ccc(O)cc1)c1ccnc(-c2cccs2)c1`: the IC50 was > 6.77 µM (inactive).
Consider `CC1=C(C#N)C(c2cc3c(cc2[N+](=O)[O-])OCO3)C2=C(CCCC2=O)N1` (stereo not drawn), for which the IC50 was > 6.48 µM (inactive).
`CC(=O)CC1=C(C(=O)O)N2C(=O)C(N)C2SC1` (stereo not drawn): the IC50 is > 6.48 µM (inactive).
For `CCC[C@@H]1NC(=O)[C@H]2CN(C(=O)NCc3ccccc3)CCN2C1=O` the value was > 6.48 µM (inactive); for `O=C1c2c(O)cccc2Cc2cccc(O)c21`, > 6.48 µM (inactive).
On to `CC(C)C[C@@H]1NC(=O)[C@H]2CN(C(=O)NCc3ccccc3)CCN2C1=O`, for which the IC50 is > 6.48 µM (inactive).
For `C[C@@H](O)[C@@H]1NC(=O)[C@H]2CN(C(=O)NC3CCCCC3)CCN2C1=O` the value was > 6.48 µM (inactive).
With `O=C1O[C@H](C(O)CO)C(O)=C1O` (stereo partly drawn), the IC50 was > 6.48 µM (inactive).
For `O=C1N[C@@H](Cc2ccccc2)C(=O)N2CCN(C(=O)NC3CCCCC3)C[C@H]12` the value was > 6.48 µM (inactive); for `O=C(CCCCC1SCC2NC(=O)NC21)NC1(c2ccc3c(c2)OCO3)CCCC1` (stereo not drawn), > 6.48 µM (inactive).
